Laboratory results: article PMC9194936, “Preclinical Activity and Pharmacokinetic/Pharmacodynamic Relationship for a Series of Novel Benzenesulfonamide Perforin Inhibitors” (ACS Pharmacology & Translational Science, 2022)
Where two headings read alike, the source gives them in different places.

Assays:
[1] = Mouse plasma pharmacokinetics; assay type: in vivo; conditions: for AUC(0-t): read-out: AUC0–24
Experimental: Male C57BL/6 mice (18–25 g) were supplied and housed under controlled temperature and humidity at the Vernon Jansen Unit of the University of Auckland. The mice had access to a pelleted diet and water ad libitum. All animal experimentation followed protocols approved by the University of Auckland Animal Ethics Committee (approval #001781). Dosing solutions were prepared in 20% hydroxypropyl-β-cyclodextrin (Sigma-Aldrich). The mice received one to three doses by intraperitoneal route and were euthanised at predetermined time points (n = 3 mice per time point at 0.083, 0.25, 0.5, 1, 2, 4, 6, and 24 h for 10 mg/kg 1 and 7; 0.5, 1, 2, 6, and 24 h for 80 and 160 mg/kg 1; and 1, 6, and 24 h for 120 mg/kg 1). Blood samples (∼300 μL) were obtained through cardiac bleed and collected in ice-cold K2-EDTA tubes (BD, Franklin Lakes, NJ). Plasma was separated by centrifugation at 6500 rpm for 5 min and stored at −80 °C. On the day of analysis, plasma samples were thawed on ice and the analytes were extracted by mixing 10 μL of aliquots with four volumes of ice-cold acetonitrile/methanol (1:1 v/v) containing internal standard. The samples were kept on ice for 10 min to ensure complete protein precipitation, vortexed for 2 min, and centrifuged at 13 000 rpm for 5 min at room temperature. The clear supernatant was then diluted (1:1 v/v) with 40 μL of 0.01% formic acid in Milli-Q water prior to analysis by LC-MS/MS.
Compound concentration in biological matrices was measured by LC-MS/MS using a 6410b triple-quadrupole mass spectrometer (Agilent, Santa Clara) equipped with a multimode ionization source. The optimized mass detector conditions, namely, ionization polarity, precursor product ions, fragmentor voltage, and collision energy, were manually determined by infusing a 5 μM solution of the pure compound into the ion source. Chromatographic separation was achieved using a Zorbax SB-C18, 50 × 2.1 mm^2, 5 μm column (Agilent), and an Agilent 1100 series HPLC system. The mobile phase used was (A) 0.01% formic acid in Milli-Q water and (B) 80% acetonitrile containing 0.01% formic acid in ultrapure water at a flow rate of 0.6 mL/min. A gradient elution was used over 5 min, and the flow rate was maintained at 0.6 mL/min throughout the gradient. The column oven temperature and the autosampler temperature were set to 35 and 4 °C, respectively. […] The instrument multimode source parameters were set as follows: gas temperature, 325 °C; vaporizer, 250 °C; gas flow, 5 L/min; and nebulizer, 45 psi. The ion spray voltage was set at 3000 V. Detection of the compounds was carried out in multiple reaction monitoring mode by monitoring the m/z transitions of precursor to selective product ion. For each compound, fragmentor voltage and collision energy were optimized to achieve maximum abundance. Quadrupoles Q1 and Q3 were set to unit resolution.
Test samples were diluted up to 100-fold in blank plasma as necessary and quantitated against a calibration curve of known analyte concentrations ranging from 3 nM to 30 μM in an appropriate matrix and quality controls at 0.03, 0.3, 3, and 30 μM. Pharmacokinetic parameters were evaluated using noncompartmental analysis and pharmacokinetic simulations using one-compartment analysis on Phoenix WinNonlin version 6.2 (Certara, Princeton, NJ). Multiple-dose simulations were generated from parameters derived from single-dose simulations.

recombinant perforin = test system: recombinant perforin; design: method as in PMID 28582670, PMID 28110869; conditions: lytic activity of recombinant perforin against Jurkat T leukemia cells; cited from earlier work
[2] = male, mouse, ip, 80 mg/kg single i.p. dose, C57BL/6 mice, plasma
[3] = male, mouse, ip, 120 mg/kg single i.p. dose, C57BL/6 mice, plasma
[4] = male, mouse, ip, 160 mg/kg single i.p. dose, C57BL/6 mice, plasma
[5] = male, C57BL/6, ip, mouse plasma, 10 mg/kg intraperitoneal

SMILES	Cmax ([1]; 10 mg/kg single i.p. dose, C57BL/6 mice, plasma) [µM]	half-life ([1]; male, C57BL/6, mouse, plasma, intraperitoneal, across the dose levels 160, 120, 80 and 10 mg/kg, read-out: elimination half-life) [h]	AUC(0-t) ([1]; male, mouse, ip, 10 mg/kg single i.p. dose, C57BL/6 mice, plasma) [µM·h]	half-life ([1]; male, mouse, ip, 10 mg/kg single i.p. dose, C57BL/6 mice, plasma, read-out: T1/2 (converted)) [h]	Cmax [1, 2] [µM]	AUC(0-t) [1, 2] [µM·h]	half-life ([1]; male, mouse, ip, 80 mg/kg single i.p. dose, C57BL/6 mice, plasma, read-out: T1/2 (converted)) [h]	Cmax [1, 3] [µM]	AUC(0-t) [1, 3] [µM·h]	half-life ([1]; male, mouse, ip, 120 mg/kg single i.p. dose, C57BL/6 mice, plasma, read-out: T1/2 (converted)) [h]	Cmax [1, 4] [µM]	AUC(0-t) [1, 4] [µM·h]	half-life ([1]; male, mouse, ip, 160 mg/kg single i.p. dose, C57BL/6 mice, plasma, read-out: T1/2 (converted)) [h]	IC50 (recombinant perforin) [µM]	AUC [1, 5] [µM·h]	Cmax [1, 5] [µM]	half-life ([1]; male, C57BL/6, ip, mouse plasma, 10 mg/kg intraperitoneal, read-out: T1/2 (converted)) [h]
CN1Cc2cc(-c3ccc(-c4cncc(NS(=O)(=O)c5ccccc5[N+](=O)[O-])c4)s3)ccc2C1=O [Compound 1, N-{5-[5-(2-methyl-1-oxo-2,3-dihydro-1H-isoindol-5-yl)-2-thienyl]-3-pyridinyl}-2-nitrobenzenesulfonamide]	105	2.4 to 3.4	413	2.38	782	5440	2.85	1030	7320	2.85	1190	8940	3.36	6.65	–	–	–
O=C1NCc2ccc(-c3ccc(-c4cncc(NS(=O)(=O)c5ccc(F)cc5F)c4)s3)cc21 [Compound 7, 2,4-difluoro-N-{5-[5-(3-oxo-2,3-dihydro-1H-isoindol-5-yl)-2-thienyl]-3-pyridinyl}benzenesulfonamide]	–	–	–	–	–	–	–	–	–	–	–	–	–	4.15	1220	235	4.1
